# Source: the supplement of paper PMC10307832
# Experiments:
# Assay in all cases: relative viability (nuclei count vs DMSO), 5 days (fraction); higher = more cells survive
# SW 900 = test system: SW 900
# How it was run: (§1)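 Cells from lung cancer lines were seeded into 1536-well plates and, one day later, dosed by pin tool. Treatments were either a single drug or a fixed dose of an anchor drug with five library-drug doses (not always all listed) in √10 steps. After 5 days, nuclei were stained in a one-step fixation (final 0.05% Triton X-100, 1% formaldehyde, 1 ug/ml Hoechst) and counted on 4× images, and relative viability is the treated-to-vehicle nuclei ratio, as the median of duplicate plates.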
# NCI-H2023 = test system: NCI-H2023
# How it was run: as §1
# NCI-H647 = test system: NCI-H647
# How it was run: as §1
# NCI-H2405 = test system: NCI-H2405
# How it was run: as §1
# PC-14 = test system: PC-14
# How it was run: as §1
# NCI-H1734 = test system: NCI-H1734
# How it was run: as §1
# NCI-H2347 = test system: NCI-H2347
# How it was run: as §1
# EPLC-272H = test system: EPLC-272H
# How it was run: as §1
# 201T = test system: 201T
# How it was run: as §1
# COR-L23 = test system: COR-L23
# How it was run: as §1
# NCI-H2170 = test system: NCI-H2170
# How it was run: as §1
# UMC-11 = test system: UMC-11
# How it was run: as §1
# NCI-H1793 = test system: NCI-H1793
# How it was run: as §1
# NCI-H3122 = test system: NCI-H3122
# How it was run: as §1
# HCC-15 = test system: HCC-15
# How it was run: as §1
# NCI-H520 = test system: NCI-H520
# How it was run: as §1
# NCI-H322M = test system: NCI-H322M
# How it was run: as §1
# LOU-NH91 = test system: LOU-NH91
# How it was run: as §1
# NCI-H1650 = test system: NCI-H1650
# How it was run: as §1
# H3255 = test system: H3255
# How it was run: as §1
# NCI-H441 = test system: NCI-H441
# How it was run: as §1
structure (smiles),measurement,setting,value
Cc1sc2c(c1C)C(c1ccc(Cl)cc1)=N[C@@H](CC(=O)OC(C)(C)C)c1nnc(C)n1-2 [JQ1] + Nc1ncn([C@H]2C[C@H](O)[C@@H](CO)O2)c(=O)n1 [Decitabine] (partner 2 µM),relative viability,SW 900; first compound 0.04 µM,0.431
same,relative viability,SW 900; first compound 0.1265 µM,0.472
same,relative viability,SW 900; first compound 0.4 µM,0.426
same,relative viability,SW 900; first compound 1.265 µM,0.307
same,relative viability,SW 900; first compound 4 µM,0.235
same,relative viability,NCI-H2023; first compound 0.04 µM,0.233
same,relative viability,NCI-H2023; first compound 0.1265 µM,0.228
same,relative viability,NCI-H2023; first compound 0.4 µM,0.198
same,relative viability,NCI-H2023; first compound 1.265 µM,0.14
same,relative viability,NCI-H2023; first compound 4 µM,0.13
same,relative viability,NCI-H647; first compound 0.04 µM,0.309
same,relative viability,NCI-H647; first compound 0.1265 µM,0.331
same,relative viability,NCI-H647; first compound 0.4 µM,0.344
same,relative viability,NCI-H647; first compound 1.265 µM,0.25
same,relative viability,NCI-H647; first compound 4 µM,0.203
same,relative viability,NCI-H2405; first compound 0.04 µM,0.81
same,relative viability,NCI-H2405; first compound 0.4 µM,0.75
same,relative viability,NCI-H2405; first compound 1.265 µM,0.577
same,relative viability,NCI-H2405; first compound 4 µM,0.471
same,relative viability,PC-14; first compound 0.04 µM,0.188
same,relative viability,PC-14; first compound 0.1265 µM,0.19
same,relative viability,PC-14; first compound 0.4 µM,0.185
same,relative viability,PC-14; first compound 1.265 µM,0.0999
same,relative viability,PC-14; first compound 4 µM,0.117
same,relative viability,NCI-H1734; first compound 0.04 µM,0.492
same,relative viability,NCI-H1734; first compound 0.1265 µM,0.549
same,relative viability,NCI-H1734; first compound 0.4 µM,0.523
same,relative viability,NCI-H1734; first compound 1.265 µM,0.408
same,relative viability,NCI-H1734; first compound 4 µM,0.364
same,relative viability,NCI-H2347; first compound 0.04 µM,0.664
same,relative viability,NCI-H2347; first compound 0.1265 µM,0.6
same,relative viability,NCI-H2347; first compound 0.4 µM,0.58
same,relative viability,NCI-H2347; first compound 1.265 µM,0.506
same,relative viability,NCI-H2347; first compound 4 µM,0.437
same,relative viability,EPLC-272H; first compound 0.04 µM,0.365
same,relative viability,EPLC-272H; first compound 0.1265 µM,0.352
same,relative viability,EPLC-272H; first compound 0.4 µM,0.323
same,relative viability,EPLC-272H; first compound 1.265 µM,0.246
same,relative viability,EPLC-272H; first compound 4 µM,0.253
same,relative viability,201T; first compound 0.04 µM,0.88
same,relative viability,201T; first compound 0.4 µM,0.694
same,relative viability,201T; first compound 1.265 µM,0.527
same,relative viability,201T; first compound 4 µM,0.453
same,relative viability,COR-L23; first compound 0.04 µM,0.421
same,relative viability,COR-L23; first compound 0.1265 µM,0.351
same,relative viability,COR-L23; first compound 0.4 µM,0.387
same,relative viability,COR-L23; first compound 1.265 µM,0.272
same,relative viability,COR-L23; first compound 4 µM,0.332
same,relative viability,NCI-H2170; first compound 0.04 µM,0.415
same,relative viability,NCI-H2170; first compound 0.1265 µM,0.441
same,relative viability,NCI-H2170; first compound 0.4 µM,0.473
same,relative viability,NCI-H2170; first compound 1.265 µM,0.345
same,relative viability,NCI-H2170; first compound 4 µM,0.255
same,relative viability,UMC-11; first compound 0.04 µM,0.514
same,relative viability,UMC-11; first compound 0.1265 µM,0.468
same,relative viability,UMC-11; first compound 0.4 µM,0.328
same,relative viability,UMC-11; first compound 1.265 µM,0.294
same,relative viability,UMC-11; first compound 4 µM,0.309
same,relative viability,NCI-H1793; first compound 0.04 µM,0.557
same,relative viability,NCI-H1793; first compound 0.1265 µM,0.433
same,relative viability,NCI-H1793; first compound 0.4 µM,0.468
same,relative viability,NCI-H1793; first compound 1.265 µM,0.418
same,relative viability,NCI-H1793; first compound 4 µM,0.484
same,relative viability,NCI-H3122; first compound 0.04 µM,0.489
same,relative viability,NCI-H3122; first compound 0.1265 µM,0.395
same,relative viability,NCI-H3122; first compound 0.4 µM,0.517
same,relative viability,NCI-H3122; first compound 1.265 µM,0.343
same,relative viability,NCI-H3122; first compound 4 µM,0.38
same,relative viability,HCC-15; first compound 0.04 µM,0.617
same,relative viability,HCC-15; first compound 0.1265 µM,0.491
same,relative viability,HCC-15; first compound 0.4 µM,0.6
same,relative viability,HCC-15; first compound 1.265 µM,0.406
same,relative viability,HCC-15; first compound 4 µM,0.408
same,relative viability,NCI-H520; first compound 0.04 µM,0.52
same,relative viability,NCI-H520; first compound 0.1265 µM,0.561
same,relative viability,NCI-H520; first compound 0.4 µM,0.443
same,relative viability,NCI-H520; first compound 1.265 µM,0.349
same,relative viability,NCI-H520; first compound 4 µM,0.355
same,relative viability,NCI-H322M; first compound 0.04 µM,0.631
same,relative viability,NCI-H322M; first compound 0.1265 µM,0.886
same,relative viability,NCI-H322M; first compound 0.4 µM,0.641
same,relative viability,NCI-H322M; first compound 1.265 µM,0.594
same,relative viability,NCI-H322M; first compound 4 µM,0.592
same,relative viability,LOU-NH91; first compound 0.04 µM,0.826
same,relative viability,LOU-NH91; first compound 0.1265 µM,0.725
same,relative viability,LOU-NH91; first compound 0.4 µM,0.554
same,relative viability,LOU-NH91; first compound 1.265 µM,0.491
same,relative viability,LOU-NH91; first compound 4 µM,0.521
same,relative viability,NCI-H1650; first compound 0.04 µM,0.442
same,relative viability,NCI-H1650; first compound 0.1265 µM,0.44
same,relative viability,NCI-H1650; first compound 0.4 µM,0.333
same,relative viability,NCI-H1650; first compound 1.265 µM,0.185
same,relative viability,NCI-H1650; first compound 4 µM,0.146
same,relative viability,H3255; first compound 0.04 µM,0.562
same,relative viability,H3255; first compound 0.4 µM,0.539
same,relative viability,H3255; first compound 1.265 µM,0.305
same,relative viability,H3255; first compound 4 µM,0.249
same,relative viability,NCI-H441; first compound 0.04 µM,0.257
same,relative viability,NCI-H441; first compound 0.1265 µM,0.266
same,relative viability,NCI-H441; first compound 0.4 µM,0.251
same,relative viability,NCI-H441; first compound 1.265 µM,0.152
same,relative viability,NCI-H441; first compound 4 µM,0.17
